Here are results for one molecule from patent US8946298B2, “Plant disease controlling composition and method for controlling plant disease” (Sumitomo Chemical Company, Limited, priority 2010, dated 2015).

This assay deals with gray mold fungus (Botrytis cinerea). In words: cucumber leaf disk test, preventive value against gray mold. Format: in vivo. As to conditions: 15° C., four days. The method, then: True leaf of cucumber is punched out with cork borer to 13 mm in diameter to prepare a leaf disk. In 24 well microwell plate that is dispensed with 1 ml 0.8% water agar, the leaf disk is placed such that the upper side of the leaf is in an upward direction. Thereto is added 20 micro liter a testing solution prepared by mixing a dimethyl sulfoxide solution of the present compound (racemate) and a dimethyl sulfoxide solution of iminoctadine trialbesilate to a predetermined concentration to treat the leaf disk.
After confirming that the testing medical solution is dried, conidium of gray mold fungus (Botrytis cinerea) is suspended into potato dextrose broth (DIFCO) in a density of about 10^5 conidium/mL and is then subjected to a spray inoculation. After leaving to stand the leaf disk in a growth chamber set up at 15° C. for four days, an onset area on the leaf is measured and then calculated an onset area rate (hereinafter, referred to as an onset area rate of treated group).
The same operation is carried out with 20 micro liter water instead of 20 micro liter a testing medicine solution to calculate an onset area rate (hereinafter, referred to an onset area rate of non-treated group).
A preventive value is calculated from the above onset area rate of treated group and the onset area rate of non-treated group by the following equation: Preventive value (%)=100×(A−B)/A
A: an onset area rate of treated group
B: an onset area rate of non-treated group
The same operations as described in Test Example 1 are carried out with iminoctadine triacetate instead of iminoctadine trialbesilate, so as to calculate a preventive value.
Also for comparison, the same operations as described in Test Example 1 are carried out with the exception that the testing medicine solution is substituted with a predetermined concentration of each dimethyl sulfoxide solution of the present compound (racemate) or iminoctadine triacetate, so as to calculate respective preventive values.
For comparison, the same operations as described in Test Example 1 are carried out with the exception that the testing medicine solution is substituted with a predetermined concentration of a dimethyl sulfoxide solution of iminoctadine triacetate, so as to calculate a preventive value.

In the case of `CC(=O)O.CC(=O)O.CC(=O)O.NC(N)=NCCCCCCCCNCCCCCCCCN=C(N)N` [iminoctadine triacetate], the “preventive value (%)” value (Table 2, iminoctadine triacetate alone 0.5 ppm) turned out to be 20%; the “preventive value (%)” value (Table 2, iminoctadine triacetate alone 5.0 ppm) turned out to be 53%; the “preventive value (%)” value (Table 3 (Reference Example), iminoctadine triacetate alone 0.5 ppm) was 20%; the “preventive value (%)” value (Table 3 (Reference Example), iminoctadine triacetate alone 5.0 ppm) was determined as 56%.
